{"source": "patent US20070270350A1", "about": "“Methods and Compositions for the Prevention and Treatment of Inflammatory Diseases or Conditions” (MUSC FOUNDATION FOR RESEARCH DEVELOPMENT, priority 2003, published 2007)", "key": {"small GTPase Ras": {"tested_on": "small GTPase Ras", "experiment": "Quantification of Ras activation (GST-Raf-1 Ras binding domain)", "format": "cell-based, rat", "conditions": "D-PDMP 50 μM pretreatment; LPS/IFN 5 mins", "description": "Quantification of Ras Activation. After stimulation, primary astrocytes in 6 well plates were washed with PBS and lysed in membrane lysis buffer (MLB; 0.5 ml of 25 mM HEPES, pH7.5, 150 mM NaCl, 1% Igepal CA-630, 0.25% sodium deoxycholate, 10% glycerol, 10 mM MgCl2, 1 mM EDTA, 25 mM NaF, 1 mM of sodium orthovanadate, and EDTA free Complete™ protease inhibitor cocktail). After centrifugation (5,000×g) at 4° C. for 5 min, supernatant was used for Ras activation assay. One hundred μg of supernatant was used for binding with agarose conjugated Ras-binding domain (RBD) of Raf-1 which was expressed in BL21 (Invitrogen) Escherichia coli strain transformed by pGEX-2T-GST-RBD in the presence of 0.1 mM of IPTG as described previously (Herrmann et al., 1995). The binding reaction was performed at 4° C. for 30 min in MLB. Following washing with MLB three times, Ras-RBD complex were denatured by adding of 2×SDS sample buffer. Ras protein was identified by western immunoblot analysis with Ras antibodies from Upstate Biotechnology."}, "[1]": {"conditions": "cited from earlier work"}, "iNOS": {"tested_on": "iNOS", "experiment": "LPS/IFN-induced NO production and iNOS expression in C6 glioma cells", "format": "cell-based, rat", "conditions": "D-PDMP 10, 25, 50 μM, 0.5 hr pretreatment", "description": "C6 rat glioma cells obtained from ATCC were maintained in Dulbecco's modified Eagle's medium (DMEM) (GIBCO, CA) containing 10% fetal bovine serum (FBS) (GIBCO) and 10 ? g/ml gentamicin. All the cultured cells were maintained at 37° C. in 5% CO2/95% air. At 80% confluency, the cells were incubated with serum free DMEM medium for 24 h prior to the incubation with LPS/IFN ? and other chemicals. Assay for NO production. Cells were cultured in 12-well plastic tissue culture plates. After the appropriate treatment, production of NO was determined by an assay of the culture supernatant for nitrite (Green et al., 1982). Briefly, 100 μl of culture supernatant was allowed to react with 100 μl of Griess reagent. The optical density of the assay samples was measured spectrophotometrically at 570 nm. Nitrite concentrations were calculated from a standard curve derived from the reaction of NaNO2 in fresh media. Western Blot Analysis. […] The protein concentration of samples was determined with the detergent compatible protein assay reagent (Bio-Rad Laboratories, CA) using bovine serum albumin (BSA) as the standard. Sample was boiled for 3 min with 0.1 volumes of 10% O-mercaptoethanol and 0.5% bromophenol blue mix. Fifty μg of total cellular protein was resolved by electrophoresis in 8 or 12% polyacrylamide gels, electro-transferred to polyvinylidene difluoride (PVDF) filter and blocked with Tween 20 containing Tris-buffered saline [TBST; 10 mM Trizma base (pH 7.4), 1% Tween 20, and 150 mM NaCl] with 5% skim milk. After incubation with antiserum against iNOS (BD PharMingen, CA), or hRas (Upstate Biotechnology, CA), or phospho-specific MAPK (p42/44) (Signal Transduction), in PVDF buffer for 2 h at room temperature, the filters were washed 3 times with TBST buffer and then incubated with horseradish peroxidase conjugated anti-rabbit or mouse IgG for 1 h. The membranes were autoradiographed by using ECL-plus (Amersham Pharmacia Biotech) after washing with TBST buffer. RT-PCR amplification. […] PCR amplification was conducted in 25 ? l of reaction mixture with 1.0 ? l of cDNA, […] and under the manufacturer's Taq polymerase conditions (Takara, […] Shuzo Co. Ltd, Japan). The sequence of primers used for PCR amplification are as follows; iNOS, (Forward-[NT], Reverse-[NT]), GalT-2 (Forward-[NT], Reverse-[NT]), GAPDH (Forward-[NT], Reverse-[NT])."}}}
{"smiles": "CCCCCCCCCC(=O)NC(CN1CCOCC1)C(O)c1ccccc1.Cl", "note": "[D-PDMP, D-threo-1-Phenyl-2-decanoylamino-3-morpholino-1-propanol HCl]", "values": [{"measurement": "LPS/IFN mediated activation of Ras", "setting": "small GTPase Ras", "value": "reduced"}, {"measurement": "solubility in water", "setting": "[1]", "value": "soluble"}, {"measurement": "LPS/IFN induced NO production", "setting": "iNOS", "value": "inhibited"}, {"measurement": "iNOS protein and mRNA levels", "setting": "iNOS", "value": "inhibited"}]}
